Assay results published in article PMC5571359, “Screening the Medicines for Malaria Venture Pathogen Box across Multiple Pathogens Reclassifies Starting Points for Open-Source Drug Discovery” (Antimicrobial Agents and Chemotherapy, 2017).
Read-outs that look alike come from different tables or passages of the source.

Key:
T. brucei rhodesiense = conditions: ref Pbox supporting information, cited from earlier work; for IC50: read-out: T .b. rohdensie Pbox IC50
[1] = test system: T. cruzi C4 β-galactosidase reporter parasite in MRC 5SV2 host cells; conditions: cited from earlier work
HepG2 = conditions: cited from earlier work
[2] = test system: T. b. brucei 427 bloodstream trypanosomes; test: T. b. brucei resazurin viability assay; assay type: cell-based, Trypanosoma brucei brucei; conditions: Trypanosoma brucei
[3] = test system: L. infanium (macrophages); set-up: method as in Pbox supporting information; conditions: ref Pbox supporting information; cited from earlier work
HEK293 cells = test: HEK293 resazurin cell cytotoxicity assay; conditions: for IC50 / inhibition at 20 µM: Homo sapiens, HEK293, read-out: HEK % Inhibition 20uM/IC50 Discovery Biology
T. brucei brucei = conditions: ref Pbox supporting information, cited from earlier work
[4] = test system: T. cruzi intracellular amastigotes; test: Intracellular anti-Trypanosoma cruzi image-based assay (amastigotes); assay type: cell-based; conditions: for Emax / IC50: Trypanosoma cruzi; for Emax: PBox kinetoplastid set compounds active against T. cruzi alone, read-out: Emax against T. cruzi (subefficacious effect); for IC50: intracellular amastigotes
[5] = test system: Plasmodium falciparum 3D7 asexual blood stage; test: microbe, parasite or virus in culture
[6] = test system: NF54-pfs16-LUC-GFP stage IV gametocytes; test: Plasmodium falciparum late stage gametocyte (LSG) image-based assay; assay type: cell-based
[7] = ref Pbox supporting information, read-out: T. cruzi Pbox IC50
[8] = HepG2, ref PBox supporting information
[9] = read-out: T b.brucei Discovery Biology IC50
[10] = read-out: T.b. brucei Pbox IC50
[11] = read-out: T cruzi Discovery Biology IC50
[12] = 7 days exposure, ref PBox supporting information, read-out: T. cruzi IC50 in the PBox supporting information file
[13] = PBox compounds, 48 h exposure, read-out: IC50 T. cruzi (Discovery Biology)
[14] = PBox compounds, read-out: IC50 T. brucei brucei (Discovery Biology)
[15] = 3D7, read-out: Antiplasmodial IC50 (ABS), PBox compounds, P. falciparum 3D7
[16] = Plasmodium falciparum, NF54, read-out: Antiplasmodial IC50 (GAM / LSG), PBox compounds, stage IV gametocytes, single determination

## N=C(N)c1ccc(-c2cc(-c3ccccc3)on2)cc1 [MMV688514]
T. brucei rhodesiense
  IC50: 1080 nM
[1]; [7]
  IC50: 4040 nM
HepG2; [8]
  HepG2 PBox CC20: 2600 nM
[2]; [9]
  IC50: 3530 nM
[3]
  IC50: 2540 nM
HEK293 cells
  IC50: > 20000 nM
T. brucei brucei; [10]
  IC50: 4060 nM

## CO[C@@H]1CN(c2ccc(C#CC3(O)CN4CCC3CC4)c(Cc3ccccc3)n2)C[C@H]1O (some centres unmarked) [MMV688415]
T. brucei rhodesiense
  IC50: 4000 nM
[1]; [7]
  IC50: < 130 nM
HepG2
  HepG2 PBox CC20: 38400 nM
[4]
  Emax: < 100%
[4]; [11]
  IC50: 100 nM
[3]
  IC50: 17300 nM
HEK293 cells
  IC50: > 20000 nM
T. brucei brucei; [10]
  IC50: 16100 nM

## Cc1ccc(S(=O)(=O)Nc2ccc(CN3CCN(C(=O)c4cccc(C#N)c4)CC3)cc2)cc1 [MMV689028]
T. brucei rhodesiense
  activity against T. brucei rhodesiense: demonstrated activity
  IC50: 120 nM
[1]; [12]
  IC50: 1200 nM
[4]; [13]
  IC50: 670 nM
[2]; [14]
  IC50: 240 nM
[3]
  IC50: 32000 nM
HEK293 cells
  IC50: > 20000 nM
T. brucei brucei; read-out: T. brucei brucei IC50, PBox
  IC50: 140 nM

## COc1ccc(C2=NCCN2)cc1-c1cn(-c2cccc(C3=NCCN3)c2)nn1 [MMV688547]
T. brucei rhodesiense
  IC50: 1630 nM
[1]; [7]
  IC50: > 32000 nM
HepG2; [8]
  HepG2 PBox CC20: >80000 nM
[3]
  IC50: > 32000 nM
HEK293 cells
  IC50: > 20000 nM
[5]; [15]
  IC50: 1020 nM
T. brucei brucei; [10]
  IC50: > 32000 nM

## NCCN(C(=O)c1ccc(Cl)cc1Cl)c1ccc(OCc2ccc(Cl)cc2)cc1 [MMV688371]
T. brucei rhodesiense
  activity against T. brucei rhodesiense: demonstrated activity
  IC50: < 130 nM
[1]; [7]
  IC50: 620 nM
[4]; [11]
  IC50: 4350 nM
[2]; [9]
  IC50: 240 nM
[3]
  IC50: 630 nM
HEK293 cells
  IC50: > 20000 nM
T. brucei brucei; [10]
  IC50: < 130 nM

## CC1=Nc2ccc(Cl)cc2C(O)(c2ccc(C)cc2)N1CCN1CCCCC1 (centres unmarked) [MMV688279]
T. brucei rhodesiense
  IC50: 430 nM
[1]; [7]
  IC50: 4040 nM
HepG2; [8]
  HepG2 PBox CC20: 10000 nM
[2]; [9]
  IC50: 4520 nM
[3]
  IC50: 4060 nM
[6]; [16]
  IC50: 2400 nM
[6]; read-out: Antiplasmodial IC50 (GAM / LSG), PBox compounds, stage IV gametocytes, single determination
  IC50: 2350 nM
HEK293 cells
  IC50: > 20000 nM
[5]; [15]
  IC50: 320 nM
T. brucei brucei; [10]
  IC50: 980 nM

## CC(C)(C)C(O)C(Oc1ccc(-c2ccccc2)cc1)n1cncn1 (centres unmarked) [MMV688942, Bitertanol]
T. brucei rhodesiense
  IC50: 28000 nM
[1]; [7]
  IC50: 55 nM
[4]
  Emax: < 100%
[4]; [11]
  IC50: 80 nM
[3]
  IC50: > 64000 nM
HEK293 cells
  IC50: > 20000 nM
T. brucei brucei; [10]
  IC50: 32900 nM

## Cc1nn2c(=O)c3c([nH]c2c1-c1ccc(Cl)cc1)CCCC3 [MMV688776]
T. brucei rhodesiense
  IC50: 140 nM
[1]; [12]
  IC50: < 1000 nM
[1]; [7]
  IC50: 720 nM
[4]; 8 μM
  activity against T. cruzi at 8 μM in the Discovery Biology assay: no activity
[2]; [9]
  IC50: 1790 nM
[3]
  IC50: 44000 nM
HEK293 cells
  IC50: > 20000 nM
T. brucei brucei; [10]
  IC50: 500 nM

## CC1CCCCN1C(=O)NCCc1coc(-c2ccc(F)cc2)n1 (centres unmarked) [MMV688797]
T. brucei rhodesiense
  IC50: 110 nM
[1]; [7]
  IC50: 480 nM
[4]; [11]
  IC50: 370 nM
[2]; [9]
  IC50: 130 nM
[3]
  IC50: > 64000 nM
HEK293 cells
  IC50: > 20000 nM
T. brucei brucei; [10]
  IC50: 130 nM

## COc1ccc(S(=O)(=O)Nc2ccc(CN3CCN(C(=O)c4cccc(C#N)c4)CC3)cc2)cc1 [MMV689029]
T. brucei rhodesiense
  activity against T. brucei rhodesiense: demonstrated activity
  IC50: 400 nM
[1]; [7]
  IC50: 2700 nM
[4]; [11]
  IC50: 1390 nM
[2]; [9]
  IC50: 1080 nM
[3]
  IC50: 52200 nM
HEK293 cells
  IC50: > 20000 nM
T. brucei brucei; [10]
  IC50: 500 nM

## CCC(=O)Nc1ccccc1C(=O)Nc1ccccn1 [MMV202553]
T. brucei rhodesiense
  IC50: 1310 nM
[1]; [7]
  IC50: > 64000 nM
[2]; [14]
  IC50: 1000 nM
[2]; [9]
  IC50: 1010 nM
[3]
  IC50: > 64000 nM
HEK293 cells
  IC50: > 20000 nM
T. brucei brucei; [10]
  IC50: 2460 nM

## O=C(NCc1nnc2n1CCCCC2)c1ccc(-c2ccc(F)cc2)o1 [MMV688796]
T. brucei rhodesiense
  activity against T. brucei rhodesiense: demonstrated activity
  IC50: 130 nM
[1]; [7]
  IC50: 2070 nM
[4]; [11]
  IC50: 1520 nM
[2]; [9]
  IC50: 230 nM
[3]
  IC50: > 64000 nM
HEK293 cells
  IC50: > 20000 nM
T. brucei brucei; [10]
  IC50: 100 nM

## CNC(=O)C1Cc2ccccc2N1C(=O)Cc1ccc(F)cc1 (centres unmarked) [MMV188296]
T. brucei rhodesiense
  IC50: 380 nM
[1]; [7]
  IC50: > 64000 nM
[2]; [9]
  IC50: 1470 nM
[3]
  IC50: > 64000 nM
HEK293 cells
  IC50: > 20000 nM
T. brucei brucei; [10]
  IC50: 490 nM

## CO[C@@H](C(=O)N1Cc2n[nH]c(NC(=O)c3ccc(N4CCN(C)CC4)cc3)c2C1)c1ccccc1 [MMV676600]
T. brucei rhodesiense
  IC50: 370 nM
[1]; [7]
  IC50: 6480 nM
HepG2; [8]
  HepG2 PBox CC20: 4800 nM
[2]; [9]
  IC50: 1340 nM
[3]
  IC50: 4060 nM
HEK293 cells
  inhibition at 20 µM: 45%
T. brucei brucei; [10]
  IC50: 1020 nM

## c1ccc(Oc2ccc(-c3cc(N4CCNCC4)[nH]n3)cc2)cc1 [MMV687706]
T. brucei rhodesiense
  IC50: 970 nM
[1]; [7]
  IC50: 4480 nM
HepG2; [8]
  HepG2 PBox CC20: 6400 nM
[2]; [9]
  IC50: 5050 nM
[3]
  IC50: 4060 nM
HEK293 cells
  IC50: > 20000 nM
T. brucei brucei; [10]
  IC50: 990 nM

## CO/N=C(\C(=O)OC)c1ccccc1CO/N=C(\C)c1cccc(C(F)(F)F)c1 [MMV688754]
T. brucei rhodesiense
  IC50: 26200 nM
[1]; [7]
  IC50: 1940 nM
[3]
  IC50: > 64000 nM
[6]; [16]
  IC50: 140 nM
HEK293 cells
  IC50: > 20000 nM
[5]; 3D7, read-out: Antiplasmodial IC50 (ABS)
  IC50: 190 nM
T. brucei brucei; [10]
  IC50: 33600 nM

## Cc1cccnc1NC(=O)c1cccc(OCc2c(C)noc2C)c1 [MMV688793]
T. brucei rhodesiense
  IC50: 650 nM
[1]; [7]
  IC50: > 64000 nM
[2]; [14]
  IC50: 1200 nM
[2]; [9]
  IC50: 1160 nM
[3]
  IC50: > 64000 nM
HEK293 cells
  IC50: > 20000 nM
T. brucei brucei; [10]
  IC50: 2070 nM

## CC1COC(Cn2cncn2)(c2ccc(Oc3ccc(Cl)cc3)cc2Cl)O1 (centres unmarked) [MMV688943, difenoconazole]
T. brucei rhodesiense
  IC50: 26200 nM
[1]; [7]
  IC50: 15 nM
[4]
  Emax: < 100%
[4]; [11]
  IC50: 100 nM
[3]
  IC50: 44700 nM
HEK293 cells
  IC50: > 20000 nM
T. brucei brucei; [10]
  IC50: 32500 nM

## O=C(NCCc1ccn(-c2ccccc2)n1)C1CCCCC1 [MMV688795]
T. brucei rhodesiense
  IC50: < 130 nM
[1]; [7]
  IC50: 740 nM
[4]; [11]
  IC50: 930 nM
[2]; [9]
  IC50: 270 nM
[3]
  IC50: > 64000 nM
HEK293 cells
  IC50: > 20000 nM
T. brucei brucei; [10]
  IC50: 150 nM

## COc1cc(C2=NCCN2)cc2cc(-c3ccc(C4=NCCN4)cc3)oc12 [MMV688362]
T. brucei rhodesiense
  IC50: 780 nM
[1]; [7]
  IC50: 13300 nM
HepG2; [8]
  HepG2 PBox CC20: 14300 nM
[3]
  IC50: > 32000 nM
[6]; Plasmodium falciparum, NF54, read-out: Pf Stage IV GAMS Discovery Biology IC50, stage IV gametocytes
  IC50: 6670 nM
HEK293 cells
  IC50: > 20000 nM
[5]; [15]
  IC50: 590 nM
T. brucei brucei; [10]
  IC50: 14500 nM

## CCN(CC)S(=O)(=O)c1ccc(C(=O)Nc2cc(C)nn2-c2nc(C)c(C)c(=O)[nH]2)cc1 [MMV595321]
T. brucei rhodesiense
  IC50: 1700 nM
[1]; [7]
  IC50: 1960 nM
[2]; [9]
  IC50: 4340 nM
[3]
  IC50: 6870 nM
HEK293 cells
  activity in the HEK293 cytotoxicity assay: comparable activity
  inhibition at 20 µM: 74%
T. brucei brucei; [10]
  IC50: 5300 nM

## CCCCN(CCCC)c1c(C#N)cc(S(=O)(=O)Nc2ccccc2)cc1C#N [MMV688467]
T. brucei rhodesiense
  IC50: 240 nM
[1]; [7]
  IC50: 820 nM
HepG2; [8]
  HepG2 PBox CC20: 11900 nM
[4]; [13]
  IC50: 3980 nM
[2]; [9]
  IC50: 1150 nM
[3]
  IC50: 13600 nM
HEK293 cells
  IC50: > 20000 nM
T. brucei brucei; [10]
  IC50: 260 nM
